How the values were obtained:
CYP1A2 [1] = molecular target: T1, CYP1A2 (Homo sapiens, UniProt P05177); settings: 10 µM zanubrutinib, 30 min pre-incubation with HLMs and NADPH
T1 sequence (P05177 1-516): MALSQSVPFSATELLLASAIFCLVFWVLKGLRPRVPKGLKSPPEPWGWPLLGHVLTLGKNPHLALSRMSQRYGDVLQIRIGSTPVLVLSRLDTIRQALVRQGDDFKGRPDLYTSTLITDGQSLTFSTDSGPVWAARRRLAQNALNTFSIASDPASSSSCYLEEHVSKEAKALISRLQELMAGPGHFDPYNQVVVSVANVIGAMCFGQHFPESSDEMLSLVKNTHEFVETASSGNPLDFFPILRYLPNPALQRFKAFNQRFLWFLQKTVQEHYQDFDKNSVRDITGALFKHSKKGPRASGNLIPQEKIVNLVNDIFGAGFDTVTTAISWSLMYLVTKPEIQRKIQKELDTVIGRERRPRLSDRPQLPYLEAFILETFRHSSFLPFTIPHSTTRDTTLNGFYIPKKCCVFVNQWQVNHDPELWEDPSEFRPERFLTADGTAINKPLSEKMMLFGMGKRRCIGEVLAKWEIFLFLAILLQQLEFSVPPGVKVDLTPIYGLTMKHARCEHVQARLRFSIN

OCT2 = molecular target: T2, OCT2 (Homo sapiens, UniProt O15244); assay: SLC inhibition assay in HEK293 cells; assay type: in vitro ADME
T2 sequence (O15244 1-555): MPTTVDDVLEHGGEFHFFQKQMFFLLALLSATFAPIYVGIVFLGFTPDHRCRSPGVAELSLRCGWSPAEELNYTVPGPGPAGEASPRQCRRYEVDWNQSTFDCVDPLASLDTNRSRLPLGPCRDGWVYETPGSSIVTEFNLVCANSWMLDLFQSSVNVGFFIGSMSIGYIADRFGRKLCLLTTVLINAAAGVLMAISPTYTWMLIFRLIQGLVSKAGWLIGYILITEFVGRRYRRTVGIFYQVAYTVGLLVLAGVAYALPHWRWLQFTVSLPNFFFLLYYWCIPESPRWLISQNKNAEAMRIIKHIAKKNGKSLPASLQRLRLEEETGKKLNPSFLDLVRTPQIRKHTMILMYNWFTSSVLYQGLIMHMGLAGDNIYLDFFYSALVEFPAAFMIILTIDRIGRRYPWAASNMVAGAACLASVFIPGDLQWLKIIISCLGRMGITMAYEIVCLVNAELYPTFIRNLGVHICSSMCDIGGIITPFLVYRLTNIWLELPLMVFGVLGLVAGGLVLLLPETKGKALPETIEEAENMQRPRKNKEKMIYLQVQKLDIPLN

human BCRP = molecular target: T3, human BCRP (Homo sapiens, UniProt Q9UNQ0); assay: BCRP inhibition in vesicles; assay type: in vitro ADME; settings: 0.05–5 µM
T3 sequence (Q9UNQ0 1-655): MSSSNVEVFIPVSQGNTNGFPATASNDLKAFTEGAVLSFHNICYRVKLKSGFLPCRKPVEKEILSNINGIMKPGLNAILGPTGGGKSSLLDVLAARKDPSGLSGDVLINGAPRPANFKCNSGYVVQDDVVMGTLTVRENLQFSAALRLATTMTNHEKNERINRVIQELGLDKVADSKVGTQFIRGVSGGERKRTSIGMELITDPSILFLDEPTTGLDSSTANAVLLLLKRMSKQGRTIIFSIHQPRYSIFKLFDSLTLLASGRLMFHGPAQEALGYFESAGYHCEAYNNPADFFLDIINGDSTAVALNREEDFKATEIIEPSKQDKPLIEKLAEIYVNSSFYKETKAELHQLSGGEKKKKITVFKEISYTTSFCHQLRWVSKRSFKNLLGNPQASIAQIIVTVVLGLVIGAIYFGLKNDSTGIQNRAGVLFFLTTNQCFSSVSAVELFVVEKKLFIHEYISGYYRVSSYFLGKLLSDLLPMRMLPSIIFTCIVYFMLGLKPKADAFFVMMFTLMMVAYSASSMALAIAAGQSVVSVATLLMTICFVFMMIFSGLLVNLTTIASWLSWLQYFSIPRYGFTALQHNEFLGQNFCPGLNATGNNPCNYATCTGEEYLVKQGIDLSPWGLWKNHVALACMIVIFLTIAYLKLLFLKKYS

CYP2B6 = assay: CYP induction in human hepatocytes; assay type: in vitro ADME
CYP3A = CYP3A (Homo sapiens, UniProt P08684); assay: CYP reversible inhibition in HLMs; settings: for R1: DDI basic model, hepatic; for R1 , gut: intestinal CYP3A, basic model; for Ag / Ah: static model term; for Ag: gut inhibition; for Ah: liver inhibition
Sequence of CYP3A (P08684 2-503): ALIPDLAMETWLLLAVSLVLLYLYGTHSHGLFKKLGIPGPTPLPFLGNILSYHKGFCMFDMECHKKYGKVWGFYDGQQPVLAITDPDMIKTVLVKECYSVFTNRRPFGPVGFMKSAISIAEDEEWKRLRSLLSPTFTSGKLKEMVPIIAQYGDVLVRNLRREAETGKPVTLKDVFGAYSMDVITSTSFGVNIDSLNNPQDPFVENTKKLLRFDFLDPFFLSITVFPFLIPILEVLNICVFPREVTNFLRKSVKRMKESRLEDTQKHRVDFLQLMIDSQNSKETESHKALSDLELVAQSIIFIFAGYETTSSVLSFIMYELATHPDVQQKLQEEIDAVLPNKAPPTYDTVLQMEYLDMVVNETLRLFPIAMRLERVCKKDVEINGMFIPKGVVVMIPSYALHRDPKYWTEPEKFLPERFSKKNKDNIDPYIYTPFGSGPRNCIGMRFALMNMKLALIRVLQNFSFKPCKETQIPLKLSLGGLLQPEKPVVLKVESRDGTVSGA

CYP2C8 = assay: CYP induction in human hepatocytes; assay type: in vitro ADME
[2] = Clinical pharmacokinetic parameters of zanubrutinib; assay type: in vivo, human
[3] = estimated from PBPK modeling; cited from earlier work
CYP2C19 = settings: coadministration of zanubrutinib; cited from earlier work
CYP2C9 = assay: CYP induction in human hepatocytes; assay type: in vitro ADME
[4] = CYP phenotyping in HLMs with chemical inhibitors; settings: 1 μM
CYP1A2 [5] = settings: DDI basic model value for induction
[6] = human, HEK293 cells overexpressing OCT2 (and MOCK cells), probe metformin
[7] = DDI basic model value for induction
[8] = human, cryopreserved human hepatocytes
[9] = static model term, induction in liver

Structure (SMILES): C=CC(=O)N1CCC([C@@H]2CCNc3c(C(N)=O)c(-c4ccc(Oc5ccccc5)cc4)nn32)CC1 [zanubrutinib]
- Percent loss of enzymatic activity (CYP1A2 [1]): 8.10%
- IC50 (OCT2): ~4.5 µM
- activity at 0.05 µM (OCT2; [6]): 107 ± 10%
- activity at 0.2 µM (OCT2; [6]): 339 ± 5.7%
- activity at 1 µM (OCT2; [6]): 178 ± 36%
- activity at 5 µM (OCT2; [6]): 48.4 ± 5.2%
- Inhibitor status (OCT2; up to 5.0 μM): marginal inhibitor
- BCRP inhibition (human BCRP): did not inhibit BCRP activity
- R 3 (CYP2B6; [7]): 0.55
- EC50 at 2 days (CYP2B6; [8]): 0.73 µM
- Ch (CYP2B6; [9]): 1.23
- R1 (CYP3A; midazolam): 1.00
- R1 , gut (CYP3A; midazolam): 241
- Ag (CYP3A; midazolam): 0.45
- Ah (CYP3A; midazolam): 0.99
- R1 (CYP3A; testosterone): 1.00
- R1 , gut (CYP3A; testosterone): 58
- Ag (CYP3A; testosterone): 0.77
- Ah (CYP3A; testosterone): 1.00
- Fa (fraction absorbed) ([2]; estimated from a human mass balance study): 0.70
- Fg (fraction available after intestinal metabolism) [3]: 0.44
- R 3 (CYP3A4; [7]): 0.23
- Cg (CYP3A4; static model term, induction in gut): 14.6
- Ch (CYP3A4; [9]): 1.77
- Reduction of AUC of CYP2C19 probe omeprazole (CYP2C19): 36.5%
- Zanubrutinib remaining ([4]; 30-min incubation with HLMs + CYP3A inhibitor ketoconazole 1 µM): 98.9%
- Zanubrutinib remaining ([4]; 30-min incubation with HLMs, no inhibitor): 32.8%
- R 3 (CYP1A2 [5]): 0.37

Source: paper PMC8524670 (Pharmacology Research & Perspectives, 2021)
